The values that follow come from patent US7317007B2, “Benzothiazole derivatives with activity as adenosine receptor ligands” (Hoffmann-La Roche Inc., priority 2000, dated 2008).

Counter-ions that a name gives are not always drawn.

T1 sequence (P29274 whole entry): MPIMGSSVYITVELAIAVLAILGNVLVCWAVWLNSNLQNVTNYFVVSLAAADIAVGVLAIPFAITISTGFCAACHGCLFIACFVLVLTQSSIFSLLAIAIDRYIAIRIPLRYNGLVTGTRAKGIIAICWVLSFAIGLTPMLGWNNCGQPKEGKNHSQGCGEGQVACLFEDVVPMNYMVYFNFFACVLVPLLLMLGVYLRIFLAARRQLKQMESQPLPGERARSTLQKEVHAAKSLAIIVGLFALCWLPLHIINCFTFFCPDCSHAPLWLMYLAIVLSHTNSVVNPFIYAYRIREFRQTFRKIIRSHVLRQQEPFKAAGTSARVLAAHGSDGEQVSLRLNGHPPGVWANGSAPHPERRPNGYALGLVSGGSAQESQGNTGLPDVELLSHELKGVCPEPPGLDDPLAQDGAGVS

This test concerns the target T1, human adenosine A2A receptor (Homo sapiens, UniProt P29274).
T1 construct: expressed in transfected cells; host or cells: CHO cells, Semliki Forest virus expression system; washed membrane pellet used
Kind of test: [3H]-SCH-58261 binding assay at the human adenosine A2A receptor. Particulars: read-out: pKi value (converted). The procedure: Human Adenosine A2A Receptor
The human adenosine A2A receptor was recombinantly expressed in chinese hamster ovary (CHO) cells using the semliki forest virus expression system. Cells were harvested, washed twice by centrifugation, homogenised and again washed by centrifugation. The final washed membrane pellet was suspended in a Tris (50 mM) buffer containing 120 mM NaCl, 5 mM KCl, 2 mM CaCl2 and 10 mM MgCl2 (pH 7.4) (buffer A). The [^3H]-SCH-58261 (Dionisotti et al., 1997, Br J Pharmacol 121, 353; 1 nM) binding assay was carried out in 96-well plates in the presence of 2.5 μg of membrane protein, 0.5 mg of Ysi-poly-1-lysine SPA beads and 0.1 U adenosine deaminase in a final volume of 200 μl of buffer A. Non-specific binding was defined using xanthine amine congener (XAC; 2 μM). Compounds were tested at 10 concentrations from 10 μM-0.3 nM. All assays were conducted in duplicate and repeated at least two times. Assay plates were incubated for 1 hour at room temperature before centrifugation and then bound ligand determined using a Packard Topcount scintillation counter. IC50 values were calculated using a non-linear curve fitting program and Ki values calculated using the Cheng-Prussoff equation.
As for `COc1ccc(-c2ccnc(C)c2)c2sc(NC(=O)c3ccc(C)s3)nc12` [Example 61, 5-Methyl-thiophene-2-carboxylic acid [4-methoxy-7-(2-methyl-pyridin-4-yl)-benzothiazol-2-yl]-amide], the Ki was 1.26 nM.
With `CCN(CCOC)Cc1cc(C(=O)Nc2nc3c(OC)ccc(N4CCOCC4)c3s2)ccc1Cl` [Example 278, 4-Chloro-3-{[ethyl-(2-methoxy-ethyl)-amino]-methyl}-N-(4-methoxy-7-morpholin-4-yl-benzothiazol-2-yl)-benzamide], the Ki is 3.16 nM.
With `COCCN(C)Cc1ccc(C(=O)Nc2nc3c(OC)ccc(-c4csc(-c5ccc(C)nc5)n4)c3s2)cc1` [Example 238, 4-{[(2-Methoxy-ethyl)-methyl-amino]-methyl}-N-{4-methoxy-7-[2-(6-methyl-pyridin-3-yl)-thiazol-4-yl]-benzothiazol-2-yl}-benzamide], the Ki is 2 nM.
In the case of `COCCOCc1ccc(C(=O)Nc2nc3c(OC)ccc(N4CCOCC4)c3s2)cc1` [Example 314, 4-(2-Methoxy-ethoxymethyl)-N-(4-methoxy-7-morpholin-4-yl-benzothiazol-2-yl)-benzamide] it was 3.16 nM; in that of `COCCN(C)Cc1cccc(C(=O)Nc2nc3c(OC)ccc(N4CCOCC4)c3s2)c1` [Example 287, 3-{[(2-Methoxy-ethyl)-methyl-amino]-methyl}-N-(4-methoxy-7-morpholin-4-yl-benzothiazol-2-yl)-benzamide], 3.16 nM; in that of `COc1ccc(N2CCOCC2)c2sc(NC(=O)c3ccc(CSCCN(C)C)cc3)nc12` [Example 298, 4-(2-Dimethylamino-ethylsulfanylmethyl)-N-(4-methoxy-7-morpholin-4-yl-benzothiazol-2-yl)-benzamide], 2 nM.
Turning to `CNCc1ccc(C(=O)Nc2nc3c(OC)ccc(N4CCOCC4)c3s2)cc1` [Example 292, N-(4-Methoxy-7-morpholin-4-yl-benzothiazol-2-yl)-4-methylaminomethyl-benzamide], the Ki is 1.58 nM.
In the case of `COc1ccc(-c2ccccc2)c2sc(NC(=O)c3ccc(C)s3)nc12` [Example 3, 5-Methyl-thiophene-2-carboxylic acid (4-methoxy-7-phenyl-benzothiazol-2-yl)-amide] it was 1.58 nM.
Regarding `CCOCCNCc1ccc(C(=O)Nc2nc3c(OC)ccc(N4CCOCC4)c3s2)cc1` [Example 290, 4-[(2-Ethoxy-ethylamino)-methyl]-N-(4-methoxy-7-morpholin-4-yl-benzothiazol-2-yl)-benzamide], the Ki was 2.51 nM.
On to `CNCc1cccc(C(=O)Nc2nc3c(OC)ccc(N4CCOCC4)c3s2)c1` [Example 279, N-(4-Methoxy-7-morpholin-4-yl-benzothiazol-2-yl)-3-methylaminomethyl-benzamide], for which the Ki is 1.58 nM.
For `COc1ccc(N2CCOCC2)c2sc(NC(=O)c3ccc(CN4CCN(C)CC4)cc3)nc12` [Example 309, N-(4-Methoxy-7-morpholin-4-yl-benzothiazol-2-yl)-4-(4-methyl-piperazin-1-yl-methyl)-benzamide], the Ki was 3.16 nM.
As for `COc1ccc(-c2csc(-c3ccc(C)nc3)n2)c2sc(NC(=O)N3CCOCC3)nc12` [Example 258], the figure is 1.26 nM.
As to `COc1ccc(N2CCOCC2)c2sc(NC(=O)c3ccc(Cl)c(CN4CCCC4)c3)nc12` [Example 283, 4-Chloro-N-(4-methoxy-7-morpholin-4-yl-benzothiazol-2-yl)-3-pyrrolidin-1-ylmethyl-benzamide], the Ki was 1 nM.
As to `COc1ccc(-c2ccccc2)c2sc(NC(=O)c3ccncc3)nc12` [Example 36, N-(4-Methoxy-7-phenyl-benzothiazol-2-yl)-isonicotinamide], the Ki is 0.794 nM.
As for `COc1ccc(-c2ccccc2)c2sc(NC(=O)c3ccc(CNCc4cccnc4)cc3)nc12` [Example 107, N-(4-Methoxy-7-phenyl-benzothiazol-2-yl)-4-{[(pyridin-3-ylmethyl)-amino]-methyl}-benzamide hydrochloride salt (1:2)], the figure is 1.58 nM.
